Test results from patent US20040132696A1, “Therapeutic agents for pigmentation and melanocyte growth inhibitory agents” (priority 1999, published 2004).
Like-named read-outs stand apart in the source and are kept apart here.

Experiments:
Format in all cases: cell-based
[1] = system: normal human epidermal melanocytes (NHEM); experiment: Growth inhibition of cultured human melanocytes (cell count by Coulter Counter); details: Melanocyte, 144 h, read-out: inhibitory effect against the proliferation of melanocytes
Procedure: (§1) Melanocytes: normal human epidermal melanocytes (NHEM:KM-4009, Kurabo Industries).
(§2) Melanocytes were cultured at 2×10^5 cells/well in MGM3 (Melanocyte Growth Medium 3, Takara Shuzo) used as a culture medium. Keratinocytes were cultured at 1×10^5 cells/well in KGM2 (Keratinocyte Growth Medium 2, Takara Shuzo) used as a culture medium. To each well was added 22-oxacalcitriol or calcitriol at a final concentration of 10^−7 M and cultivation was continued. On days 3 and 6 after the addition, the number of cells was determined by a Coulter Counter.

[2] = system: normal human epidermal keratinocytes (HEKn); experiment: Growth inhibition of cultured human keratinocytes (cell count by Coulter Counter); details: Keratinocyte, 144 h, read-out: inhibition against keratinocytes
Procedure: Keratinocytes: normal human epidermal keratinocytes (HEKn:C-001-5C, Kurabo Industries).
as §2

[3] = system: Human melanocytes; experiment: Tritiated thymidine (3[H]-TdR) uptake by cultured human melanocytes; details: 10^-7 M, day 1
Procedure: as §1
Human melanocytes were cultured at 5×10^5 cells/well in MGM3 used as a culture medium, and 22-oxacalcitriol or calcitriol was added to each well at a final concentration of 10^−7 M to determine tritiated thymidine (^3[H]-TdR) uptake by cells in a liquid scintillation counter on days 1, 3 and 5 after the addition.

[4] = 10^-7 M, day 6, average of 5 experiments

SMILES	inhibition at 0.1 µM [1]	inhibition at 0.1 µM [2]	decrease in tritiated thymidine uptake [3]	inhibition at 0.1 µM [1, 4]	inhibition at 0.1 µM [2, 4]
C=C1/C(=C\C=C2/CCC[C@]3(C)[C@@H]([C@H](C)CCCC(C)(C)O)CC[C@@H]23)C[C@@H](O)C[C@@H]1O [calcitriol, 1α,25-dihydroxyvitamin D3]	≥ 30%	40%	50%		
C=C1/C(=C\C=C2/CCC[C@]3(C)[C@@H]([C@H](C)OCCC(C)(C)O)CC[C@@H]23)C[C@@H](O)C[C@@H]1O [22-oxacalcitriol]				≥ 30%	25%
